From ChEMBL document CHEMBL3351664, “Acylphloroglucinol derivatives from Hypericum andinum: antidepressant-like activity of andinin A” (J Nat Prod, 2014)

Assays:
Mus musculus [1] = test: Toxicity in po dosed CF1 mouse assessed as effect on locomotor activity at 30 mg/kg, po measured after 60 mins by open-field test; format: organism-based; parameters: dose 30 mg/kg, route oral; conditions: in vivo, 1 h
Mus musculus [2] = test: Antidepressant-like activity in po dosed mouse assessed as reduction in the immobility time by forced-swimming test; format: functional, organism-based

In the case of CC(C)=CCOc1cc(O)c(C(=O)C(C)C)c(O)c1CC1=C(O)C(C)(C)C(O)=C(C(=O)C(C)C)C1=O, the Activity (Mus musculus [1]) is reported as “Non-toxic” and the Activity (Mus musculus [2]) is reported as “Dose-dependent effect”.
